# Test results published in patent US9676721B2, “Compounds and compositions for the inhibition of NAMPT” (FORMA TM, LLC, priority 2010, dated 2017).
# Columns and labels:
# NAMPT = NAMPT (Homo sapiens (Human), UniProt P43490); test: Biochemical Inhibition Assay (NAMPT enzymatic reaction, NMN by mass spectrometry); details: recombinant His-tagged NAMPT 33 nM, 1 μM NAM, 30 minutes; read-out: Biochem IC50
# Outline: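 His-tagged human NAMPT from E. coli in 50 mM Hepes pH 7.5, 50 mM NaCl, 5 mM MgCl2, 1 mM THP. Product NMN quantified by RapidFire ESI mass spectrometry, normalised to L-cystathionine internal control and background-subtracted; % inhibition converted to IC50.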
# A2780 cells = test: In-Vitro Cell Proliferation Assay (SRB); type: cell-based
# Outline: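 A2780 cells treated 72 h at 37 °C, 5% CO2 with serially diluted compound, 0.1% DMSO final. Viable cells by sulforhodamine B staining after TCA fixation, absorbance 570 nm, background-subtracted for % inhibition and IC50; specificity checked by co-addition of NAM or NMN.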
# NAMPT, sequence (P43490 whole entry): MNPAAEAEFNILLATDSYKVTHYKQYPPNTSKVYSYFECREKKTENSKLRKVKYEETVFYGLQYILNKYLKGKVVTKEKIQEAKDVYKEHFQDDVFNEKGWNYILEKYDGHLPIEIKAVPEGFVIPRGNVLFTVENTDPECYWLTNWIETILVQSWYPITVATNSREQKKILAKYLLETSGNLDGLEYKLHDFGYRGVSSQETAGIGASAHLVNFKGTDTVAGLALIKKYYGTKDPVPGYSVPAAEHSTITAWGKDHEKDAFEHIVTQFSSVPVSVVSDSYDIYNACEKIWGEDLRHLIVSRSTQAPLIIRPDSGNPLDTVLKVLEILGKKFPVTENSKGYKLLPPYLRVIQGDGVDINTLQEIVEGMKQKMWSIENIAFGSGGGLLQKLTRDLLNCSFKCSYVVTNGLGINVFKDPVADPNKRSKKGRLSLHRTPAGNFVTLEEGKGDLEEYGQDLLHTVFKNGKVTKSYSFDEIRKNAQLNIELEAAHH
SMILES,IC50 (NAMPT) [nM],"IC50 (A2780 cells; Homo sapiens, A2780, 72 h) [nM]",IC50 (A2780 cells; 72 hours) [nM]
N#CN=C(NCc1ccc(S(=O)(=O)c2cc(F)cc(Cl)c2)cc1)Nc1ccncc1 [1-({4-[(3-chloro-5-fluorobenzene)sulfonyl]phenyl}methyl)-2-cyano-3-(pyridin-4-yl)guanidine],5.1,6.9,
COc1cc(Cl)cc(S(=O)(=O)c2ccc(CNC(=NC#N)Nc3ccncc3)cc2)c1 [1-({4-[(3-chloro-5-methoxybenzene)sulfonyl]phenyl}methyl)-2-cyano-3-(pyridin-4-yl)guanidine],4.6,1.6,
CCOc1ccc(S(=O)(=O)c2ccc(CNC(=NC#N)Nc3ccncc3)cc2)cc1 [2-cyano-1-({4-[(4-ethoxybenzene)sulfonyl]phenyl}methyl)-3-(pyridin-4-yl)guanidine],5.6,3.3,
N#C/N=C(\NCc1ccc(S(=O)(=O)c2cccnc2)cc1)Nc1ccncc1 [2-cyano-3-(pyridin-4-yl)-1-{[4-(pyridine-3-sulfonyl)phenyl]methyl}guanidine],20.7,66.9,
N#CN=C(NCc1ccc(S(=O)(=O)c2ccc(Cl)c(C(F)(F)F)c2)cc1)Nc1ccncc1 [1-[(4-{[4-chloro-3-(trifluoromethyl)benzene]sulfonyl}phenyl)methyl]-2-cyano-3-(pyridin-4-yl)guanidine],1,1.5,
CCOc1ccc(S(=O)(=O)c2ccc(CNC(=NC#N)Nc3ccncc3)cc2)cc1F [2-cyano-1-({4-[(4-ethoxy-3-fluorobenzene)sulfonyl]phenyl}methyl)-3-(pyridin-4-yl)guanidine],6,3.2,
COc1cc(F)cc(S(=O)(=O)c2ccc(CNC(=NC#N)Nc3ccncc3)cc2)c1 [2-cyano-1-({4-[(3-fluoro-5-methoxybenzene)sulfonyl]phenyl}methyl)-3-(pyridin-4-yl)guanidine],2.3,2.1,
Cc1cc(Cl)cc(S(=O)(=O)c2ccc(CNC(=NC#N)Nc3ccncc3)cc2)c1 [1-({4-[(3-chloro-5-methylbenzene)sulfonyl]phenyl}methyl)-2-cyano-3-(pyridin-4-yl)guanidine],3.3,1.6,
COc1ccc(Cl)cc1S(=O)(=O)c1ccc(CNC(=NC#N)Nc2ccncc2)cc1 [1-({4-[(5-chloro-2-methoxybenzene)sulfonyl]phenyl}methyl)-2-cyano-3-(pyridin-4-yl)guanidine],5,6.4,
COc1ccc(S(=O)(=O)c2ccc(CNC(=NC#N)Nc3ccncc3)cc2)cc1Cl [1-({4-[(3-chloro-4-methoxybenzene)sulfonyl]phenyl}methyl)-2-cyano-3-(pyridin-4-yl)guanidine],2.6,4.9,
CCS(=O)(=O)c1cccc(S(=O)(=O)c2ccc(CNC(=NC#N)Nc3ccncc3)cc2)c1 [2-cyano-1-[(4-{[3-(ethanesulfonyl)benzene]sulfonyl}phenyl)methyl]-3-(pyridin-4-yl)guanidine],1.8,,13.3
N#CN=C(NCc1ccc(S(=O)(=O)c2cnc3ccccc3c2)cc1)Nc1ccncc1 [2-cyano-3-(pyridin-4-yl)-1-{[4-(quinoline-3-sulfonyl)phenyl]methyl}guanidine],1,1.8,
N#C/N=C(/NCc1cccnc1)Nc1ccc(S(=O)(=O)c2ccccc2)cc1 [1-[4-(benzenesulfonyl)phenyl]-2-cyano-3-(pyridin-3-ylmethyl)guanidine],32,2710,
N#CN=C(NCc1ccc(S(=O)(=O)c2cccc(C(F)(F)F)c2)cc1)Nc1ccncc1 [2-cyano-3-(pyridin-4-yl)-1-[(4-{[3-(trifluoromethyl)benzene]sulfonyl}phenyl)methyl]guanidine],2.5,1.2,
"Cc1cc(C)cc(S(=O)(=O)c2ccc(CNC(=NC#N)Nc3ccncc3)cc2)c1 [2-cyano-1-({4-[(3,5-dimethylbenzene)sulfonyl]phenyl}methyl)-3-(pyridin-4-yl)guanidine]",3.3,1.6,
